Test results published in ChEMBL document CHEMBL1649425, “A-CD estrogens. I. Substituent effects, hormone potency, and receptor subtype selectivity in a new family of flexible estrogenic compounds” (J Med Chem, 2011).

Experiments:
[1] = Hepatotoxicity in Sprague-Dawley rat hepatocyte after 2 hrs; format: toxicity, cell-based; details: hepatocytes, read-out: LC50
Homo sapiens [2] = species on record: Homo sapiens; assay: Selectivity ratio of relative binding affinity for human ERbeta to relative binding affinity for human ERalpha
[3] = molecular target: T1, Estrogen receptor (Homo sapiens) (UniProt P03372); assay: Activity at human ERalpha expressed in HEK293 cells assessed as relative transcription activation by estrogen response element-lucifease assay relative to estradiol; format: cell-based; parameters: concentration or dose not given beside the values
T1 sequence (whole entry): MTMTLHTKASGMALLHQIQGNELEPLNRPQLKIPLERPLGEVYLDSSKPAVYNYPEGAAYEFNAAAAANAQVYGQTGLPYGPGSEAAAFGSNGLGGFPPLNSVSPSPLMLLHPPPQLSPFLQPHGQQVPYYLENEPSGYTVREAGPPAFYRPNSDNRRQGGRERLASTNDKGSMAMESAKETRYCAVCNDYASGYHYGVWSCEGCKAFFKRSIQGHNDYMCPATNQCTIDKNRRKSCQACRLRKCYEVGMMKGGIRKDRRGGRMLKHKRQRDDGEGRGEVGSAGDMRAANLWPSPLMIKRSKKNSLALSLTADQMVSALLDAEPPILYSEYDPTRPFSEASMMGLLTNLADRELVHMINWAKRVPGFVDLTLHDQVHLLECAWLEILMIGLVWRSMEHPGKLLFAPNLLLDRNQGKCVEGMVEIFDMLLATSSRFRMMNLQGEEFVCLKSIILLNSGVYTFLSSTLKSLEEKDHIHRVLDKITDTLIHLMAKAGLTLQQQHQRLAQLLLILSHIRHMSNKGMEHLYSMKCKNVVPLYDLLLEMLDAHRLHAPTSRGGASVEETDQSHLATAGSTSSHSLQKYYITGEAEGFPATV

[4] = molecular target: Estrogen receptor beta (Homo sapiens) (UniProt Q92731); assay: Activity at human ERbeta expressed in HEK293 cells assessed as relative transcription activation by estrogen response element-lucifease assay relative to estradiol; format: cell-based; parameters: concentration or dose not given beside the values
Sequence of Estrogen receptor beta (Homo sapiens) (Q92731 whole entry): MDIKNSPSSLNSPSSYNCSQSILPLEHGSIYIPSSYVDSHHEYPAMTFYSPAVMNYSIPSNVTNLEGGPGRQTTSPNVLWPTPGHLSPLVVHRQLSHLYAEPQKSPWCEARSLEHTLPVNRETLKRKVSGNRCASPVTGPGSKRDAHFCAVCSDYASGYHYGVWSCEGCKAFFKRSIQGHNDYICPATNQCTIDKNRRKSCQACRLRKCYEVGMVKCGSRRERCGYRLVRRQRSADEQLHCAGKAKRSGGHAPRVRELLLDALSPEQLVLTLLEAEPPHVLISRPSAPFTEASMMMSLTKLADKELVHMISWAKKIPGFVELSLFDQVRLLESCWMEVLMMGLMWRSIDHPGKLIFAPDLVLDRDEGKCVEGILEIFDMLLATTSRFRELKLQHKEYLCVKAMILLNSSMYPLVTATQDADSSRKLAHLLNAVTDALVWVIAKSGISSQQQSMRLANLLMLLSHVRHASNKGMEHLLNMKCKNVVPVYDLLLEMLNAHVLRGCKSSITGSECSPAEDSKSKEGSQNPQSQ

Homo sapiens [5] = species on record: Homo sapiens; assay: Selectivity ratio of relative transcription activation for human ERbeta to relative transcription activation for human ERalpha

SMILES	Ratio (Homo sapiens [2])	Activity [3] [%]	Activity [4] [%]	CC50 at 2 h [1] [µM]	Ratio (Homo sapiens [5])
C[C@]12CC[C@@H](c3ccc(O)cc3)C[C@H]1CC[C@@H]2O	–	–	–	300	–
C[C@]12CC[C@H](c3ccc(O)cc3F)C[C@H]1CC[C@@H]2O	5	44.3	158	250	3.6
Cc1c(O)ccc([C@H]2CC[C@@]3(C)[C@H](CC[C@@H]3O)C2)c1F	1	–	–	–	–
C[C@]12CC[C@@H]3c4ccc(O)cc4CC[C@H]3[C@@H]1CC[C@@H]2O [ESTRADIOL]	–	–	–	400	–
C[C@]12CC[C@H](c3ccc(O)cc3)C[C@H]1CC[C@@H]2O	14.6	4.2	164	320	39
C[C@]12CC[C@H](c3cc(F)c(O)cc3F)C[C@H]1CC[C@@H]2O	8.7	–	–	–	–
Cc1c(O)ccc([C@H]2CC[C@@]3(C)[C@H](CC[C@@H]3O)C2)c1C	2.8	–	–	–	–
C#C[C@]1(O)CC[C@@H]2C[C@@H](c3ccc(O)cc3)CC[C@@]21C	1.3	-16.9	35.9	–	–
C[C@]12CC[C@H](c3cc(F)c(O)c(F)c3F)C[C@H]1CC[C@@H]2O	9.3	12.8	95.4	> 600	7.9
C[C@]12CC=C(c3ccc(O)cc3Cl)C[C@H]1CC[C@@H]2O	2.3	115	117	–	1
C[C@]12CC[C@H](c3ccc(O)c(F)c3F)C[C@H]1CC[C@@H]2O	9.3	18.3	151	155	8.3
C[C@]12CC[C@H](c3ccc(O)cc3)C[C@H]1CCC2=O	14	–	–	–	–

The next lines start with results.

Ratio (Homo sapiens [2])	Activity [3] [%]	Activity [4] [%]	SMILES	CC50 at 2 h [1] [µM]	Ratio (Homo sapiens [5])
6.9	–	–	C[C@]12CC[C@H](c3cc(F)c(O)c(F)c3)C[C@H]1CC[C@@H]2O	–	–
1.7	98.6	127	C[C@]12CCC(c3ccc(O)cc3Cl)=C[C@H]1CC[C@@H]2O	–	1.3
–	90	189	C[C@]12CC[C@H](c3ccc(O)cc3Cl)C[C@H]1CC[C@@H]2O	–	–
11.9	-9.7	49.2	Cc1cc(O)ccc1[C@H]1CC[C@@]2(C)[C@H](CC[C@@H]2O)C1	–	–
8.3	-9	196	C[C@]12CC[C@H](c3ccc(O)c(F)c3)C[C@H]1CC[C@@H]2O	–	–
0.5	0	0	C[C@]12CC[C@H](c3cc(Cl)c(O)c(Cl)c3)C[C@H]1CC[C@@H]2O	–	–
